Common to all, as to assay type: cell-based, human
The subject of series [1] is Hpac-spheres. The series is described as follows: Inhibition of sphere formation by stem cell signaling inhibitors. The following applies: inhibitor added into sphere culture medium, observed after 7 days. The protocol: (§1) For sphere formation, pancreatic cancer cell lines were plated 1000 cell/mL in serum-free DMEM/F12 supplemented with EGF (10 ng/mL, R&D Systems Inc., Minneapolis, Minn.), bFGF ([…], R&D Systems Inc.), 1 ITS (insulin transferring selenium, Gibco) and 0.5% FBS on Corning Costar ultra-low attached 6-well culture dishes (Corning Inc., Corning, N.Y., US), and cultured for 7-10 days. The adherent cells cultured with the same media by attaching on culture plates (Nalgene Nunc Int., Rochester, N.Y.) were used as a control group.
Well-known stem cell signaling inhibitors DAPT (Calbiochem, San Diego, Calif., USA), Cyclopamine-KAAD (Calbiochem, San Diego, Calif., USA), LiCl (Sigma-Aldrich, Inc., St. Louis, Mo.), ATRA (Sigma-Aldrich, Inc., St. Louis, Mo.), OV (Sigma-Aldrich, Inc., St. Louis, Mo.) were added added into sphere culture medium, and cultured. After 7 days, sphere formation was observed.

Series [2] has as its system Hpac cell line. Description: Sphere culture of GLRX3 knock-down cell line. The following applies: sphere-cultured for 7 days, vs control cell line. The protocol: as §1
(§2) For clonogenic assay, 0.6% agar in cell media was boiled, hardened on 24-well plate (lower layer media). The cells at density of 1000 cell/well and 0.3% agar-cell media (upper layer media) were mixed, and hardened on lower layer media. Once 0.3% upper layer media was hardened, 500 μL/well of media was added on the upper layer media. Adding the media every third day, the cells were cultured for 3-4 weeks. Afterward, the media on agar was removed, stained with crystal violet to count the number of colony.

For series [3], the system named is Hpac cell line. Description: Clonogenic assay of GLRX3 knock-down cell line. The following applies: soft agar, 3-4 weeks, vs control cell line. The protocol:
as §2

The subject of series [4] is Hpac cell line. The series is described as follows: Wound-healing assay of GLRX3 knock-down cell line. The following applies: GLRX3 k/d cell line compared to the control. How it is done: (§3) Selection marker was puromycin ([…]).
Series [5] concerns GLRX3. Description: GLRX3 mRNA and protein expression in GLRX3 knock-down cell line (PCR and western blot). The settings on record: Hpac cell line transfected with shRNA, puromycin-selected clones, vs control shRNA. How it is done: as §3
The subject of series [6] is Hpac cell line. Description: Doubling time assay (cell proliferation) of GLRX3 knock-down cell line. The following applies: GLRX3 k/d cell line compared to the control, counted for 5 days. The protocol:
as §3

The subject of series [7] is CFAPC-1 cells. Description: Fluorescence-Activated Cell Sorting of CD24/CD44/ESA after GLRX3 siRNA transfection. The settings on record: 72 hours after transfection; decreased from 70.4% (control). The protocol: To inhibit GLRX3, siRNA (invitrogen Stealth™ siRNA duplex oligoribonucleotides) to GLRX3 was used. Sense siRNA sequence was UGAGGGAGUUCUUUAGCUAACUCUG, and antisense siRNA sequence was CAGAGUUAGCUAAAGAACUCCCUCA. Med GC (invitrogen) was used as negative control siRNA. CFAPC-1 cells were transfected with GLRX3 or negative control siRNA using RNAiMAX (invtirogen, Carlsbad, Calif., US), and incubated for 72 hours. The cells were treated with accutase (Sigma-Aldrich, St. Louis, Mo.) to prepare suspensions with the same number of single cells. Afterward, the cells were stained with PE-CD24 (BD Biosciences PharMingen, San Diego, Calif.), APC-CD44 (BD Biosciences PharMingen, San Diego, Calif.) and FITC-ESA (BD Biosciences PharMingen, San Diego, Calif.). Fluorescence-Activated Cell Sorting was carried out using BD LSR II (BD Biosciences, Franklin Lakes, N.J.) and analyzed by BD FACSDiva software.

From patent US9164105B2, “Pancreatic cancer biomarker using the characteristics of pancreatic cancer stem cells, and use thereof” (INDUSTRY-ACADEMIC COOPERATION FOUNDATION, YONSEI UNIVERSITY, priority 2012, dated 2015) come the findings set out here.

`CC1=C(/C=C/C(C)=C/C=C/C(C)=C/C(=O)O)C(C)(C)CCC1` [ATRA]: the “ability to form sphere in Hpac-spheres” value in series [1] is recorded as “completely inhibited or reduced”.
Same read-out and setting: in the case of `C[C@H](NC(=O)Cc1cc(F)cc(F)c1)C(=O)N[C@H](C(=O)OC(C)(C)C)c1ccccc1` [DAPT] it was “completely inhibited or reduced”; in that of `CC1=C2C[C@H]3[C@@H](CC=C4CC(=O)CC[C@@]43C)[C@@H]2CC[C@]12O[C@@H]1C[C@H](C)CN(CCNC(=O)CCCCCNC(=O)CCc3ccccc3)[C@H]1[C@H]2C` [KAAD, Cyclopamine-KAAD], “completely inhibited or reduced”; in that of `[Cl-].[Li+]` [LiCl], “completely inhibited or reduced”.
Still for that read-out and setting: next, `[Na+].[Na+].[Na+].[O]=[V]([O-])([O-])[O-]` [OV]: “completely inhibited or reduced”.
Regarding “shRNA to GLRX3: shRNA plasmid to GLRX3, sequence GTGGAAATTCTTCACAAACAT (SEQ ID NO:4), used to establish the GLRX3 knock-down Hpac line (guide GTGGAAATTCTTCACAAACAT; listed as Homo sapiens)”, the “ability to form spheres” value in series [2] is listed as “not formed”. Also, the “colonies formed (viability and proliferation)” value in series [3] was “fewer colonies”. The cell migration activity entry in series [4] was “decreased”. The “Expressions of mRNA and protein of GLRX3” value in series [5] is “significantly reduced”. For the same molecule, in series [6], the cell proliferation rate result was “decreased”.
Consider “siRNA to GLRX3: Stealth siRNA duplex to GLRX3; sense UGAGGGAGUUCUUUAGCUAACUCUG (SEQ ID NOs:2 and 3) (chain 1 UGAGGGAGUUCUUUAGCUAACUCUG; chain 2 CAGAGUUAGCUAAAGAACUCCCUCA; listed as RNA, chemistry not given here; listed as Homo sapiens)”, for which the “fraction of CD24+/CD44+/ESA+” value in series [7] was 29.3%.
